Data on one compound can be found in patent US8551721B2, “Bioluminescent detection of cyanohydroxy benzothiazole compounds” (Promega Corporation, priority 2008, dated 2013).

Holding throughout (type): biochemical
Series [1] has as its system endogenously expressed UGT isozymes in mammalian microsomes. Kind of series: Utilization of compounds by mammalian microsomes. Conditions: 15 minutes at 37° C., 0.1 mg/mL mammalian microsomes or 0.2 mg/mL Supersomes, 50 μM compound. On the procedure: The invention includes a method of determining activity of the uridine 5′-diphospho-glucuronosyltransferase (UDP-glucuronosyltransferase, or UGT) family enzymes in vitro. […] Following the UGT enzyme reaction, an equal volume of P450-Glo Luciferin Detection Reagent (Promega) containing 15-30 mM D-cysteine-HCl.H2O (Sigma) was added and the plate was mixed and incubated at room temperature, typically for 20-30 minutes. P450-Glo Luciferin Detection Reagent can be prepared by dissolving a vial of Promega Luciferin Detection Reagent (Promega Part #V859B) with a vial of Promega P450-Glo Buffer (Promega Part #V865B).
During this incubation, the cysteine reacts with the cyanobenzathiozole substrate to yield a D-luciferin derivative. […] Therefore, activity of the UGT enzyme can be measured by analyzing the difference (lower or no output) in relative light units (RLU) of a sample in which glucuronidation occurs compared to a sample that was run under the same conditions with no added UDPGA cofactor.
Tissue microsomes were obtained from Xenotech LLC or BD Gentest.

Another series addresses T1, UGT 1A1 (Homo sapiens, UniProt P22309).
T1 construct: purchased BD Gentest; host or cells: insect cells (microsomes)
T1 sequence (P22309 26-533): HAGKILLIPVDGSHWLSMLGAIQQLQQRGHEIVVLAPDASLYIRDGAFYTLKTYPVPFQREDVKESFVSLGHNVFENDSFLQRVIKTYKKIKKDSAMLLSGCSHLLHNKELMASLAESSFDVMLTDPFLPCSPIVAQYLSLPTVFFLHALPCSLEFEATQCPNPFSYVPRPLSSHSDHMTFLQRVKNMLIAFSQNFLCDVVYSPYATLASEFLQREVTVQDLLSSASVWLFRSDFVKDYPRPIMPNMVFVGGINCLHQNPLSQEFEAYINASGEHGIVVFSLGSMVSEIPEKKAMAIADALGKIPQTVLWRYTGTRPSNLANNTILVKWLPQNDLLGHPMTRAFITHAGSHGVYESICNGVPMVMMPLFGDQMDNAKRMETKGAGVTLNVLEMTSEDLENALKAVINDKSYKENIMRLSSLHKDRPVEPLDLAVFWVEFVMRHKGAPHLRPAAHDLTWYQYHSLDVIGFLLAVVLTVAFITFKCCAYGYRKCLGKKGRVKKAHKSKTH
Kind of series: Assay variability (Z') with UGT 1A1 Supersomes and compound 3138. To be noted: 0.2 mg/mL Supersomes, 30 μM compound 3138, plus or minus 5 mM UDPGA, 12 samples each, 120 mM at 37° C. On the procedure: (§1) Assay variability was determined using the activity data and standard deviations of 12 separate minus UDPGA and plus UDPGA samples. All reactions contained 50 mM TES, pH 7.5, 8 mM MgCl2, 25 μg/mL alamethicin, 0.2 mg/mL UGT 1A1 or 2B7 Supersomes™, and 30 μM compound 3138, plus or minus 5 mM UDPGA. After […] at 37° C., 40 μl, of LDR plus 20 mM D-cysteine was added to each 40 μl, reaction and mixed. After 20 minutes at room temperature, RLU were read on a luminometer.
(§2) Z′ values were calculated using the equation outlined below.
(§3) Robust assay systems typically display Z′ values of 0.5 or higher. The calculated Z′ value for UGT 1A1 was 0.83. The calculated Z′ value for UGT 2B7 under the same conditions was 0.67.

In the next series the target is T2, UGT 2B7 (Homo sapiens, UniProt P16662).
T2 construct: purchased BD Gentest; host or cells: insect cells (microsomes)
T2 sequence (P16662 24-529): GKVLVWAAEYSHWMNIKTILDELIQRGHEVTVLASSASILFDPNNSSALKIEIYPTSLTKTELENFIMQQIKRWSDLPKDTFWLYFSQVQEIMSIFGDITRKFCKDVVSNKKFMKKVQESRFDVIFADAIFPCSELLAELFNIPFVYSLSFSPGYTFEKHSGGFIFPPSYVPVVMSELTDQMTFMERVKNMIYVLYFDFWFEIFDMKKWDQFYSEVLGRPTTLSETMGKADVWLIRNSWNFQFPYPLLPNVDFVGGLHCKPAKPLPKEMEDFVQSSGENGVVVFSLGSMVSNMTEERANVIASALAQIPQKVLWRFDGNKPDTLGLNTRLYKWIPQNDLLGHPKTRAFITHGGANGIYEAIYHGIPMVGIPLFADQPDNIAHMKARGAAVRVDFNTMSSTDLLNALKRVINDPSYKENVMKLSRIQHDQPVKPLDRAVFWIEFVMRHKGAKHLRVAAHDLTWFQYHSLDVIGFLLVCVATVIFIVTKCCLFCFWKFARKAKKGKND
Kind of series: Assay variability (Z') with UGT 2B7 Supersomes and compound 3138. Conditions: 0.2 mg/mL Supersomes, 30 μM compound 3138, plus or minus 5 mM UDPGA, 12 samples each, 120 mM at 37° C. On the procedure:
as §1, §2, §3

As for `Cc1cc(O)cc2sc(C#N)nc12` [compound 3138], the “utilization of compound 3138 by tissue microsomes compared with control 1A1 Supersomes” value in series [1] is reported as “All tissues tested utilized much more compound 3138 than the control 1A1 Supersomes”. For the same compound, the “calculated Z′ value for UGT 1A1” value on UGT 1A1 was 0.83. Moreover, the “calculated Z′ value for UGT 2B7” value at UGT 2B7 was 0.67.
